{"source": "patent US20120046172A1", "about": "“METHODS FOR USE OF TRIALKYLBENZYLAMMONIUM HALIDE COMPOSITIONS AS NON-SELECTIVE TERRESTRIAL PLANT HERBICIDES” (priority 2010, published 2012)", "origin": "cited, not measured here", "key": {"wheat plants": {"test_system": "wheat plants", "conditions": "compositions with ADBAC concentrations in the range of 0.1 to 1%; DD215228"}, "bean plants": {"test_system": "bean plants", "conditions": "compositions with ADBAC concentrations in the range of 0.1 to 1%; DD215228"}}}
{"substance": "alkyldimethylbenzyl ammonium chloride [ADBAC]", "values": [{"measurement": "Effect on wheat plants", "setting": "wheat plants", "value": "plant stunting"}, {"measurement": "Effect on bean plants", "setting": "bean plants", "value": "leaf desiccation and defoliation"}]}
